Source: PMC5754413, “Mass balance, metabolic disposition, and pharmacokinetics of a single oral dose of regorafenib in healthy human subjects” (Cancer Chemotherapy and Pharmacology, 2017)
Like-named read-outs stand apart in the source and are kept apart here.

Experiments:
[1] = Pharmacokinetics of regorafenib in plasma (HPLC–MS/MS) after a single oral 120 mg dose in healthy male subjects; format: in vivo, human; settings: for half-life: plasma
Experimental: (§1) Subjects were screened within the 28 days before scheduled drug administration and entered the clinical unit 1 day before drug administration. After an overnight fasting, subjects received a single oral 120 mg dose of regorafenib, containing approximately 100 μCi (3.7 MBq) [^14C]regorafenib, as a 6 mL solution in an aqueous PEG-based vehicle (Diluent Sol 30 mL oral, Bayer HealthCare AG) followed by 240 mL water. The associated radiation exposure fell within International Commission on Radiological Protection Guidelines for Category IIa studies (0.1–1 mSv).
(§2) Blood and plasma: Blood samples (18.7 mL per each time point) were collected into nonbeaded lithium-heparinized tubes immediately pre-dose and at the following post-dose times: 0.5, 1, 1.5, 2, 2.5, 3, 4, 6, 9, 12, 16, 20, 24, 36, 48, 72, 96, 120, 144, 192, 240, and 288 h. For each sample, 1 mL of whole blood was stored at 4 °C for subsequent LSC and the remainder was processed for plasma. Individual 150 μL plasma samples for each time point were treated with formic acid (20 μL) and acetonitrile (450 μL). The samples were homogenized using a MS2 Minishaker® (IKA® Labortechnik, Staufen im Breisgau, Germany). The precipitated proteins were removed by centrifugation (5 min, 13,000 rpm, Biofuge). After concentrating the supernatant to about 80 μL, methanol (15 μL) was added. The individual samples were analyzed by HPLC with off-line radioactivity detection for metabolite profiling.
Quantitative analysis of regorafenib in plasma was performed after protein precipitation using a fully validated HPLC–MS/MS assay. The analyses were performed in accordance with the 2001 FDA guidelines on bioanalytical validation. [^2H3,^15N]-regorafenib was used as internal standard (final concentration: 12.5 µg/L). The calibration range was from 2.00 µg/L to 2.00 mg/L. Quality control samples in the concentration range 5.00 µg/L to […] were determined with an accuracy of 98.1–103% and a precision of 1.55–10.0% (n = 6–8/concentration). All samples were stored at or below − 15 °C and analyzed within 14 days after sample receipt.
(§3) Pharmacokinetic outcome measures were generated by non-compartmental analysis of plasma concentration–time data using WinNonlin v4.1 (Pharsight Corporation) in conjunction with Kincalc v2.50 (Bayer AG). For individual subjects, primary outcome measures were maximum observed concentration (C max) and area under the concentration–time curve from time zero to infinity (AUC). […] The metabolite or regorafenib percentages were calculated by AUC(0–144)metabolite or regorafenib divided by AUC(0–144)radioactivity calculated from data obtained by HPLC–LSC analysis. Secondary outcomes were: time to C max (t max); apparent terminal elimination half-life (t ½); apparent volume of distribution during the terminal phase after extravascular administration (Vz/F); and total body clearance of drug calculated after extravascular administration (e.g., apparent oral clearance) (CL/F). AUC was estimated by the sum of partial areas: partial areas were calculated using the linear (if C i ≤ C i+1) or the logarithmic (if C i > C i+1) trapezoidal rules. The quality of the half-life calculation was assessed based on graphs showing the concentration–time profile. For reliable calculation of the half-life, at least three data points (concentration/time values) were used. The extrapolated portion of the AUC from the last measured data point C(t n) to infinity was calculated using the concentration C last,calc, which was calculated from the log-linear regression line used for half-life calculation rather than C(t n). In addition, appropriate pharmacokinetic parameters were derived from the total radioactivity-versus-time data in blood and plasma.

[2] = design: method as in PMID 22421192, PMID 22568966; settings: steady state; cited from earlier work
human feces = test: Incubation with human feces under anaerobic conditions; format: in vitro ADME; settings: anaerobic conditions, ex vivo
Experimental: Under anaerobic conditions, a suspension of fresh human feces (about 0.5 g) in degassed water (final volume 5 mL) was treated with a solution of [^14C]-labelled metabolite M-2 or metabolite M-7 (1 mg/mL acetonitrile; final concentration: 10 μM). After incubation for 24 h at 37 °C, the incubation mixture was terminated by the addition of acetonitrile (2 mL). After centrifugation (5 min, 3000 rpm), the supernatant (25 μL) was directly subjected to HPLC with the respective off-line radioactivity detection. As negative controls, metabolites M-2 and M-7 were incubated in water for 24 h at 37 °C.

CYP3A4 = system: CYP3A4; design: method as in PMID 24896071, PMID 27734608; settings: in vitro data; cited from earlier work
[3] = Total radioactivity in plasma and whole blood (LSC) after a single oral dose of [14C]regorafenib; format: in vivo, human; settings: for C max of total radioactivity: geometric mean (%CV), N = 4
Experimental: as §1, §2
Liquid samples: Duplicate aliquots of liquid samples were diluted with 1 mL distilled water, if necessary, and mixed with 10 mL Aquasafe 500 Plus scintillation fluid. Levels of radioactivity were measured by LSC (PerkinElmer 2100) with automatic quench correction by an external standard channel ratio method at 13 °C using Ultima Gold™ as the liquid scintillation cocktail. Lower limits of detection (LLOD) were 30 μg-Eq/L for plasma (sample volume 0.5 mL), 50 μg-Eq/L for whole blood (sample volume 0.3 mL), and 0.016 μg-Eq/g for urine (sample weight 1 g).
as §3, with “AG).” for “AG). For individual subjects, primary outcome measures were maximum observed concentration (C max) and area under the concentration–time curve from time zero to infinity (AUC).”, “For reliable calculation of the half-life, at least three data points (concentration/time values) were used.” left out

[4] = male, human, regorafenib in plasma, LC–MS/MS, single oral 120 mg solution, N = 4, geometric mean (%CV)

half-life ([1]; human, oral, 120 mg, except for subject 003, read-out: Half-lives for regorafenib, range between subjects): 39 to 48 h | half-life ([1]; human, oral, 120 mg, subject 003, read-out: Calculated t 1/2 for regorafenib (converted)): ~62 h | Vd/F ([1]; male, human, oral, 120 mg, regorafenib in plasma, geometric mean (%CV), N = 4, read-out: Vz/F): 216 L | Tmax ([1]; male, human, oral, 120 mg, regorafenib in plasma, median (range), N = 4): 1.25 h | half-life ([1]; male, human, oral, 120 mg, regorafenib in plasma, geometric mean (%CV), N = 4, read-out: t 1/2 (converted)): 48.6 h | AUC [1, 4]: 39000 ng·h/mL | Cmax [1, 4]: 1580 ng/mL | CL/F ([1]; regorafenib in plasma, geometric mean (%CV), N = 4): 3.08 (34.9) L/h | Stability in feces / toward gut flora (human feces): stable | Estimated half-lives of total radioactivity, range between subjects ([3]; in vivo): 34 to 42 h | C max of total radioactivity ([3]; plasma): 2.90 mg-Eq/L | C max of total radioactivity ([3]; whole blood): 1.95 mg-Eq/L
Compound: CNC(=O)c1cc(Oc2ccc(NC(=O)Nc3ccc(Cl)c(C(F)(F)F)c3)c(F)c2)ccn1 [Regorafenib, 4-[4-({[4-chloro-3-(trifluoromethyl)phenyl]carbamoyl}amino)-3-fluorophenoxy]-N-methylpyridine-2-carboxamide]
Secondary maximum of plasma concentration–time profile [2]: 6 to 8 h | Tertiary maximum of plasma concentration–time profile [2]: ~24 h | Enzyme catalyzing oxidative biotransformation (CYP3A4): predominantly catalyzed by CYP3A4 | % of AUC(144–inf), extrapolated portion ([3]; total radioactivity): % of AUC(144–inf): total (2.6%), extrapolated portion | Binding of regorafenib-derived radioactivity to red blood cells ([3]; whole blood versus plasma radioactivity): does not bind substantially to red blood cells
